Results: patent US5116839A, “Use of isoxazolin-3-one derivatives as antidepressants” (Sankyo Company, Limited, priority 1989, dated 1992)
Counter-ions that a name gives are not always drawn.

Assays:
reserpine-induced ptosis = experiment: Effect on reserpine-induced ptosis in the mouse; assay type: in vivo, mouse (male ddY); details: reserpine 2 mg/kg s.c.; for inhibition at 3 mg/kg / inhibition at 10 mg/kg / inhibition at 30 mg/kg / inhibition at 100 mg/kg: Mus musculus, 1.5 h, scored after 90 minutes, read-out: Inhibition rate (antagonism against reserpine-induced ptosis)
Protocol: (§1) The procedure employed in the tests will be explained concretely below:
1. Effect on reserpine-induced ptosis in the mouse
Male ddY mice (4 weeks of age, body weight 22-27 g) were used, divided into the indicated groups each consisting of 3 or 6 animals. The test compounds were dissolved or suspended in an appropriate solvent (physiological saline, 0.5% CMC or 1% dimethylsulfoxide solution) and were orally administered immediately before treatment with reserpine.
The vials containing the test solutions were labeled with coded ciphers and the administration was carried out in randomized order.
The mice were then subcutaneously treated with reserpine at a dose of 2 mg/kg. After 90 minutes, the extent of ptosis was scored. Grading of the score was based on the shape of eye immediately after the mice were taken out from their cages;
0: round eye shape, as normal
The inhibition rate at each dose was calculated from the scores according to the following equation: [formula] The inhibition rate was then scored on the following basis: […]

[1] = test system: spontaneous locomotor activities in mice treated with L-DOPA; experiment: Potentiating effect upon spontaneous locomotor activities in mice treated with L-DOPA; assay type: in vivo, mouse (male ddY); details: for Average locomotor activities (+/- S.E.): 1 hour, MK-486 20 mg/kg i.p. then L-DOPA i.p.
Protocol: as §1
2. Potentiating effect of compounds upon spontaneous locomotor activities in mice treated with L-DOPA
Male ddY mice (5 weeks old, body weight 30-33 g) were used, after divided into groups each consisting of 5 animals (experiment 1) or 15 animals (experiment 2). The test compounds were prepared as described in the anti-reserpine study, and given orally 20 minutes before administration of MK-486. In control animals, saline was similarly administered. In order to prevent decomposition of L-DOPA at the peripheral site, the mice were intraperitoneally given MK-486 (carbidopa) at a dose of 20 mg/kg and treated intraperitoneally 30 minutes later with L-DOPA. The mice were placed in a cage on a locomotor activity counter (AUTOMEX-11), one-by-one (experiment 1) or 3 mice a cage (experiment 2). Spontaneous locomotor activities were determined for an hour, and the average locomotor activity at each dose was calcultated from 5 counts. The spontaneous locomotor activity in animals treated with the compound was statistically analyzed versus the control group using Student's two-tailed t-test.

Acute toxicity, oral = assay type: in vivo; details: 300 mg/kg oral in 0.5% CMC, 5 mice, observed 5 days; Compound 36 as its hydrochloride
Protocol: Each of the Compounds 11, 36 (as its hydrochloride), 53, 76, and 87 dissolved in a 0.5% CMC solution was orally administered to 5 mice at a dose of 300 mg/kg. Observations were made for a period of 5 days.

[2] = test system: spontaneous locomotor activities in mice treated with L-5-HTP; experiment: Potentiating effect upon spontaneous locomotor activities in mice treated with L-5-HTP; assay type: in vivo, mouse (male ddY); details: 3 mg/kg oral; MK-486 20 mg/kg i.p.; L-5-HTP 100 mg/kg i.p.; 15 mice; 1 hour; saline 2147(+/-334); P <0.01
Protocol: as §1
3. Potentiating effect of compounds upon spontaneous locomotor activities in mice treated with L-5-HTP
Male ddY mice (4 weeks old, body weight 22-25 g) were used, after divided into groups each consisting of 15 mice. Before administration of MK-486 (20 mg/kg, IP), either the test compound formulation or vehicle (control group) was orally administered. At 30 min after administration of […], L-5-HTP (100 mg/kg IP) was injected. Spontaneous locomotor activities were determined from 15 minutes after L-5-HTP. For this determination, 3 mice were placed in a locomotor counter (Automex) for an hour and the total count noted. Five such apparatuses were used for each dose, in order to eliminate different sensitivities of each apparatus. Thus, 15 mice were used in total for each dose. The average count and SE were calculated from the 5 determinations for each dose, and statistically analyzed versus control group using Student's two-tailed t-test.

[3] = apparently exerted; cited from earlier work

Row | SMILES | Score (antagonism against reserpine-induced ptosis) (reserpine-induced ptosis; 30 mg/kg oral) | inhibition at 30 mg/kg (reserpine-induced ptosis; 30 mg/kg oral) [%] | Survival (acute toxicity) (Acute toxicity, oral) | Symptoms (acute toxicity) (Acute toxicity, oral) | Score (antagonism against reserpine-induced ptosis) (reserpine-induced ptosis; 100 mg/kg oral) | inhibition at 100 mg/kg (reserpine-induced ptosis; 100 mg/kg oral) [%] | also measured
1 | O=c1cc(-c2ccc(Cl)cc2)on1CC(O)CN1CCOCC1 (stereo not drawn) [Compound 11, 5-p-chlorophenyl-2-(2-hydroxy-3-morpholinopropyl)-4-isoxazolin-3-one] | + (71% or more) | 72 | all the mice survived | No particular symptoms were detected |  |  | Score (antagonism against reserpine-induced ptosis) (reserpine-induced ptosis; 3 mg/kg oral): ± (41% to 70%); Score (antagonism against reserpine-induced ptosis) (reserpine-induced ptosis; 10 mg/kg oral): ± (41% to 70%); inhibition at 3 mg/kg (reserpine-induced ptosis; 3 mg/kg oral): 50%; inhibition at 10 mg/kg (reserpine-induced ptosis; 10 mg/kg oral): 56%; Spontaneous locomotor activity with treatment of L-DOPA (in words) ([1]; 50 mg/kg): significantly increased; Average locomotor activities (+/- S.E.) ([1]; experiment 1: 50 mg/kg oral, 5 mice one-by-one, control 160(+/-128), P <0.05): 3355(+/-878)
2 | O=c1cc(-c2ccc(Cl)cc2)on1C[C@@H](O)CN1CCOCC1 [Compound 22, (S)-5-(p-Chlorophenyl)-2-(2-hydroxy-3-morpholinopropyl)isoxazolin-3-one] | + (71% or more) | 100 |  |  |  |  | Score (antagonism against reserpine-induced ptosis) (reserpine-induced ptosis; 3 mg/kg oral): ± (41% to 70%); Score (antagonism against reserpine-induced ptosis) (reserpine-induced ptosis; 10 mg/kg oral): ± (41% to 70%); inhibition at 3 mg/kg (reserpine-induced ptosis; 3 mg/kg oral): 56%; inhibition at 10 mg/kg (reserpine-induced ptosis; 10 mg/kg oral): 81%; Average locomotor activities (+/- S.E.) ([1]; experiment 2: 50 mg/kg oral, 15 mice, 3 mice a cage, control 666(+/-137), P <0.001): 6013(+/-629); Average spontaneous locomotor activity (+/- SE) [2]: 3544(+/-318)
3 | OC(COc1cc(-c2ccccc2)on1)CN1CCOCC1 (stereo not drawn) [Compound 36, 3-(2-Hydroxy-3-morpholinopropoxy)-5-phenylisoxazole] |  |  | all the mice survived | No particular symptoms were detected | + (71% or more) | 71 | 
4 | OC(COc1noc(-c2ccccc2)c1Cl)CN1CCOCC1 (stereo not drawn) [Compound 53, 4-Chloro-3-(2-hydroxy-3-morpholino-propoxy)-5-phenylisoxazole] | ± (41% to 70%) | 55 | all the mice survived | No particular symptoms were detected |  |  | 
5 | OC(COc1cc(-c2ccc(Cl)cc2)on1)CN1CCOCC1 (stereo not drawn) [Compound 76, 5-(p-Chlorophenyl)-3-(2-hydroxy-3-morpholinopropoxy)isoxazole] |  |  | all the mice survived | No particular symptoms were detected | + (71% or more) | 71 | 
6 | NC(=O)OCC(O)Cn1oc2ccc(Cl)cc2c1=O (stereo not drawn) [Compound 87, 2-(3-Carbamoyloxy-2-hydroxypropyl)-5-chlorobenzoisoxazolin-3-one] | + (71% or more) | 75 | all the mice survived | No particular symptoms were detected | + (71% or more) | 100 | 
7 | CN(C)CCCN1c2ccccc2CCc2ccccc21 [Imipramine.HCl, reference compound] | ± (41% to 70%) | 61 |  |  |  |  | 
8 | CN(C)CCCN1c2ccccc2CCc2ccccc21 [imipramine, 10,11-dihydro-N,N-dimethyl-5H-dibenz[b,f]azepine-5-propanamine] |  |  |  |  |  |  | Anticholinergic activity of reference (in words) [3]: anticholinergic activity which is apparently exerted
